# Legend:
# [1] = system: TRZAWR Wheat, Winter, cv Riband; experiment: Preemergence herbicidal evaluation, TRZAWR; type: in vivo, Triticum aestivum; parameters: scale not given here; settings: preemergence
# Method in brief: (§1)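 Visual ratings were taken four to five weeks after application. Before that, cups sown with seed in potting soil received a spray of compound dissolved in aqueous acetone, equivalent to about 0.013 to 0.800 kg/ha, and stood on greenhouse benches under conventional care.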
# [2] = system: IPOHE Morningglory, Ivyleaf; experiment: Postemergence herbicidal evaluation, IPOHE; type: in vivo, Ipomoea hederacea, (L.) Jacq.; parameters: scale not given here; settings: postemergence spray, rated about two-three weeks after treatment
# Method in brief: (§2)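 For this test, compound in an 80/20 acetone/water vehicle with 1.0% seed oil was sprayed over two-week-old seedlings at about 0.006 to 0.400 kg per hectare. Injury was assessed visually two to three weeks on.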
# [3] = system: AMBEL Ragweed, Common; experiment: Postemergence herbicidal evaluation, AMBEL; type: in vivo, Ambrosia artemisifolia, L.; parameters: scale not given here; settings: postemergence spray, rated about two-three weeks after treatment
# Method in brief: as §2
# [4] = system: AMBEL Ragweed, Common; experiment: Preemergence herbicidal evaluation, AMBEL; type: in vivo, Ambrosia artemisifolia, L.; parameters: scale not given here; settings: preemergence
# Method in brief: as §1
# [5] = system: GLXMAW Soybean, Williams; experiment: Preemergence herbicidal evaluation, GLXMAW; type: in vivo, Glycine max, (L.) Merr. cv Williams; parameters: scale not given here; settings: preemergence
# Method in brief: as §1
# [6] = system: ECHOG Barnyardgrass; experiment: Postemergence herbicidal evaluation, ECHOG; type: in vivo, Echinochloa crus-galli, (L.) Beau; parameters: scale not given here; settings: postemergence spray, rated about two-three weeks after treatment
# Method in brief: as §2
# [7] = system: ABUTH Velvetleaf; experiment: Preemergence herbicidal evaluation, ABUTH; type: in vivo, Abutilon theophrasti, Medic.; parameters: scale not given here; settings: preemergence
# Method in brief: as §1
# [8] = system: ZEAMX Corn, Field; experiment: Preemergence herbicidal evaluation, ZEAMX; type: in vivo, Zea mays, L. (Sammel-Bezeichnung); parameters: scale not given here; settings: preemergence
# Method in brief: as §1
# [9] = system: GLXMAW Soybean, Williams; experiment: Postemergence herbicidal evaluation, GLXMAW; type: in vivo, Glycine max, (L.) Merr. cv Williams; parameters: scale not given here; settings: postemergence spray, rated about two-three weeks after treatment
# Method in brief: as §2
# [10] = system: SETVI Foxtail, Green; experiment: Postemergence herbicidal evaluation, SETVI; type: in vivo, Setaria viridis, (L.) Beau; parameters: scale not given here; settings: postemergence spray, rated about two-three weeks after treatment
# Method in brief: as §2
# [11] = system: GALAP Galium; experiment: Preemergence herbicidal evaluation, GALAP; type: in vivo, Galium aparine; parameters: scale not given here; settings: preemergence
# Method in brief: as §1
# [12] = system: ZEAMX Corn, Field; experiment: Postemergence herbicidal evaluation, ZEAMX; type: in vivo, Zea mays, L. (Sammel-Bezeichnung); parameters: scale not given here; settings: postemergence spray, rated about two-three weeks after treatment
# Method in brief: as §2
# [13] = system: ORYSAT Rice, Tebonnet; experiment: Preemergence herbicidal evaluation, ORYSAT; type: in vivo, Oryza sativa, (L.); parameters: scale not given here; settings: preemergence
# Method in brief: as §1
# [14] = system: CASOB Sicklepod; experiment: Postemergence herbicidal evaluation, CASOB; type: in vivo, Cassia obtusifolia, L.; parameters: scale not given here; settings: postemergence spray, rated about two-three weeks after treatment
# Method in brief: as §2
# [15] = system: GALAP Galium; experiment: Postemergence herbicidal evaluation, GALAP; type: in vivo, Galium aparine; parameters: scale not given here; settings: postemergence spray, rated about two-three weeks after treatment
# Method in brief: as §2
# [16] = system: ABUTH Velvetleaf; experiment: Postemergence herbicidal evaluation, ABUTH; type: in vivo, Abutilon theophrasti, Medic.; parameters: scale not given here; settings: postemergence spray, rated about two-three weeks after treatment
# Method in brief: as §2
# [17] = system: ECHOG Barnyardgrass; experiment: Preemergence herbicidal evaluation, ECHOG; type: in vivo, Echinochloa crus-galli, (L.) Beau; parameters: scale not given here; settings: preemergence
# Method in brief: as §1
# [18] = system: CASOB Sicklepod; experiment: Preemergence herbicidal evaluation, CASOB; type: in vivo, Cassia obtusifolia, L.; parameters: scale not given here; settings: preemergence
# Method in brief: as §1
# [19] = system: CHEAL Lambsquarters, Common; experiment: Preemergence herbicidal evaluation, CHEAL; type: in vivo, Chenopodium album, L.; parameters: scale not given here; settings: preemergence
# Method in brief: as §1
# [20] = system: TRZAWR Wheat, Winter, cv Riband; experiment: Postemergence herbicidal evaluation, TRZAWR; type: in vivo, Triticum aestivum; parameters: scale not given here; settings: postemergence spray, rated about two-three weeks after treatment
# Method in brief: as §2
# [21] = system: ORYSAT Rice, Tebonnet; experiment: Postemergence herbicidal evaluation, ORYSAT; type: in vivo, Oryza sativa, (L.); parameters: scale not given here; settings: postemergence spray, rated about two-three weeks after treatment
# Method in brief: as §2
# [22] = system: SETVI Foxtail, Green; experiment: Preemergence herbicidal evaluation, SETVI; type: in vivo, Setaria viridis, (L.) Beau; parameters: scale not given here; settings: preemergence
# Method in brief: as §1
# [23] = system: CHEAL Lambsquarters, Common; experiment: Postemergence herbicidal evaluation, CHEAL; type: in vivo, Chenopodium album, L.; parameters: scale not given here; settings: postemergence spray, rated about two-three weeks after treatment
# Method in brief: as §2
# [24] = system: IPOHE Morningglory, Ivyleaf; experiment: Preemergence herbicidal evaluation, IPOHE; type: in vivo, Ipomoea hederacea, (L.) Jacq.; parameters: scale not given here; settings: preemergence
# Method in brief: as §1
structure (smiles),measurement,setting,value
"CCc1cccc(-n2nnc3cc(F)c(-n4c(=O)cc(C(F)(F)F)n(C)c4=O)cc32)c1 [Example 29, 3-[1-(3-ethylphenyl)-5-fluoro-1H-1,2,3-benzotriazol-6-yl]-1-methyl-6-(trifluoromethyl)-2,4(1H,3H)-pyrimidinedione]",TRZAWR herbicidal rating,[1]; rate 0.016 kg/ha,1.0
same,TRZAWR herbicidal rating,[1]; rate 0.032 kg/ha,1.0
same,TRZAWR herbicidal rating,[1]; rate 0.062 kg/ha,2.0
same,TRZAWR herbicidal rating,[1]; rate 0.125 kg/ha,2.0
same,Postemergence herbicidal rating IPOHE,[2]; 0.008 kg/ha,9.0
same,Postemergence herbicidal rating IPOHE,[2]; 0.016 kg/ha,9.0
same,Postemergence herbicidal rating IPOHE,[2]; 0.032 kg/ha,9.0
same,Postemergence herbicidal rating IPOHE,[2]; 0.062 kg/ha,9.0
same,Postemergence herbicidal rating AMBEL,[3]; 0.008 kg/ha,7.0
same,Postemergence herbicidal rating AMBEL,[3]; 0.016 kg/ha,7.0
same,Postemergence herbicidal rating AMBEL,[3]; 0.032 kg/ha,6.0
same,Postemergence herbicidal rating AMBEL,[3]; 0.062 kg/ha,9.0
same,AMBEL herbicidal rating,[4]; rate 0.016 kg/ha,0.0
same,AMBEL herbicidal rating,[4]; rate 0.032 kg/ha,0.0
same,AMBEL herbicidal rating,[4]; rate 0.062 kg/ha,3.0
same,AMBEL herbicidal rating,[4]; rate 0.125 kg/ha,7.0
same,GLXMAW herbicidal rating,[5]; rate 0.016 kg/ha,0.0
same,GLXMAW herbicidal rating,[5]; rate 0.032 kg/ha,1.0
same,GLXMAW herbicidal rating,[5]; rate 0.062 kg/ha,4.0
same,GLXMAW herbicidal rating,[5]; rate 0.125 kg/ha,5.0
same,Postemergence herbicidal rating ECHCG,[6]; 0.008 kg/ha,1.0
same,Postemergence herbicidal rating ECHCG,[6]; 0.016 kg/ha,1.0
same,Postemergence herbicidal rating ECHCG,[6]; 0.032 kg/ha,1.0
same,Postemergence herbicidal rating ECHCG,[6]; 0.062 kg/ha,1.0
same,ABUTH herbicidal rating,[7]; rate 0.016 kg/ha,6.0
same,ABUTH herbicidal rating,[7]; rate 0.032 kg/ha,9.0
same,ABUTH herbicidal rating,[7]; rate 0.062 kg/ha,9.0
same,ABUTH herbicidal rating,[7]; rate 0.125 kg/ha,9.0
same,ZEAMX herbicidal rating,[8]; rate 0.016 kg/ha,0.0
same,ZEAMX herbicidal rating,[8]; rate 0.032 kg/ha,2.0
same,ZEAMX herbicidal rating,[8]; rate 0.062 kg/ha,4.0
same,ZEAMX herbicidal rating,[8]; rate 0.125 kg/ha,5.0
same,Postemergence herbicidal rating GLXMAW,[9]; 0.008 kg/ha,5.0
same,Postemergence herbicidal rating GLXMAW,[9]; 0.016 kg/ha,6.5
same,Postemergence herbicidal rating GLXMAW,[9]; 0.032 kg/ha,8.0
same,Postemergence herbicidal rating GLXMAW,[9]; 0.062 kg/ha,8.0
same,Postemergence herbicidal rating SETVI,[10]; 0.008 kg/ha,1.0
same,Postemergence herbicidal rating SETVI,[10]; 0.016 kg/ha,7.0
same,Postemergence herbicidal rating SETVI,[10]; 0.032 kg/ha,9.0
same,Postemergence herbicidal rating SETVI,[10]; 0.062 kg/ha,9.0
same,GALAP herbicidal rating,[11]; rate 0.016 kg/ha,0.0
same,GALAP herbicidal rating,[11]; rate 0.032 kg/ha,0.0
same,GALAP herbicidal rating,[11]; rate 0.062 kg/ha,1.0
same,GALAP herbicidal rating,[11]; rate 0.125 kg/ha,8.0
same,Postemergence herbicidal rating ZEAMX,[12]; 0.008 kg/ha,3.5
same,Postemergence herbicidal rating ZEAMX,[12]; 0.016 kg/ha,5.0
same,Postemergence herbicidal rating ZEAMX,[12]; 0.032 kg/ha,5.0
same,Postemergence herbicidal rating ZEAMX,[12]; 0.062 kg/ha,5.0
same,ORYSAT herbicidal rating,[13]; rate 0.016 kg/ha,0.0
same,ORYSAT herbicidal rating,[13]; rate 0.032 kg/ha,1.0
same,ORYSAT herbicidal rating,[13]; rate 0.062 kg/ha,3.0
same,ORYSAT herbicidal rating,[13]; rate 0.125 kg/ha,4.0
same,Postemergence herbicidal rating CASOB,[14]; 0.008 kg/ha,0.0
same,Postemergence herbicidal rating CASOB,[14]; 0.016 kg/ha,2.0
same,Postemergence herbicidal rating CASOB,[14]; 0.032 kg/ha,2.0
same,Postemergence herbicidal rating CASOB,[14]; 0.062 kg/ha,3.0
same,melting point,,52 to 65 °C
same,Postemergence herbicidal rating GALAP,[15]; 0.008 kg/ha,0.0
same,Postemergence herbicidal rating GALAP,[15]; 0.016 kg/ha,1.0
same,Postemergence herbicidal rating GALAP,[15]; 0.032 kg/ha,1.0
same,Postemergence herbicidal rating GALAP,[15]; 0.062 kg/ha,3.0
same,Postemergence herbicidal rating ABUTH,[16]; 0.008 kg/ha,9.0
same,Postemergence herbicidal rating ABUTH,[16]; 0.016 kg/ha,9.0
same,Postemergence herbicidal rating ABUTH,[16]; 0.032 kg/ha,9.0
same,Postemergence herbicidal rating ABUTH,[16]; 0.062 kg/ha,9.0
same,ECHCG herbicidal rating,[17]; rate 0.016 kg/ha,2.0
same,ECHCG herbicidal rating,[17]; rate 0.032 kg/ha,4.0
same,ECHCG herbicidal rating,[17]; rate 0.062 kg/ha,7.0
same,ECHCG herbicidal rating,[17]; rate 0.125 kg/ha,7.0
same,CASOB herbicidal rating,[18]; rate 0.016 kg/ha,1.0
same,CASOB herbicidal rating,[18]; rate 0.125 kg/ha,1.0
same,CHEAL herbicidal rating,[19]; rate 0.016 kg/ha,9.0
same,CHEAL herbicidal rating,[19]; rate 0.032 kg/ha,9.0
same,CHEAL herbicidal rating,[19]; rate 0.062 kg/ha,9.0
same,CHEAL herbicidal rating,[19]; rate 0.125 kg/ha,9.0
same,Postemergence herbicidal rating TRZAWR,[20]; 0.008 kg/ha,2.0
same,Postemergence herbicidal rating TRZAWR,[20]; 0.016 kg/ha,2.0
same,Postemergence herbicidal rating TRZAWR,[20]; 0.032 kg/ha,2.5
same,Postemergence herbicidal rating TRZAWR,[20]; 0.062 kg/ha,3.0
same,Postemergence herbicidal rating ORYSAT,[21]; 0.008 kg/ha,2.0
same,Postemergence herbicidal rating ORYSAT,[21]; 0.016 kg/ha,2.0
same,Postemergence herbicidal rating ORYSAT,[21]; 0.032 kg/ha,2.0
same,Postemergence herbicidal rating ORYSAT,[21]; 0.062 kg/ha,3.0
same,SETVI herbicidal rating,[22]; rate 0.016 kg/ha,6.0
same,SETVI herbicidal rating,[22]; rate 0.032 kg/ha,9.0
same,SETVI herbicidal rating,[22]; rate 0.062 kg/ha,9.0
same,SETVI herbicidal rating,[22]; rate 0.125 kg/ha,9.0
same,Postemergence herbicidal rating CHEAL,[23]; 0.008 kg/ha,9.0
same,Postemergence herbicidal rating CHEAL,[23]; 0.016 kg/ha,9.0
same,Postemergence herbicidal rating CHEAL,[23]; 0.032 kg/ha,9.0
same,Postemergence herbicidal rating CHEAL,[23]; 0.062 kg/ha,9.0
same,IPOHE herbicidal rating,[24]; rate 0.016 kg/ha,0.0
same,IPOHE herbicidal rating,[24]; rate 0.032 kg/ha,3.0
same,IPOHE herbicidal rating,[24]; rate 0.062 kg/ha,6.0
same,IPOHE herbicidal rating,[24]; rate 0.125 kg/ha,7.0
